Usually IC50 stands for the concentration that inhibits the measured activity by half.

Where two headings read alike, the source gives them in different places. Bounds are passed on as bounds.

This is an account of results in publication PMC7864192 (Cancers, 2021).

Data set [1] has as its system GCPA096 T1.V patient-derived AGCT cell line. Put plainly: Cell viability drug screen (Cell Titer Glo 2.0, 72 h), mono- and combination therapy, GCPA096T1.V. Particulars: for IC50: read-out: IC50 in monotherapy, 72 h.
Description: (§1) Cell lines were seeded at a density of 500 cells/well in 40 uL in 384-well plates (Corning, NY, USA) with the Multidrop™ cell dispenser (Thermo Fischer Scientific, Waltham, MA, USA) and sealed with Breathe-Easy® membrane (Sigma-Aldrich, St. Louis, MO, USA) to prevent evaporation. The SVOG-3e line was seeded at 1000 cells/well due to contact-dependent growth requirements. For each cell line, three biological repeats and two technical repeats each were performed in order to ensure the validity of the drug screens. […] Subsequently, 11 drugs and 12 drug combinations were dispensed and all wells (excluding blanks and non-DMSO control wells) were normalized to 1% DMSO using the HP Tecan D300e Digital Dispenser (Hewlett-Packard, Palo Alto, CA, USA). All drugs were applied in linear concentration ranges (Table 2), including 16 data points to enable combination drug testing at constant ratios (Table 3). Next, the plates were covered with the Breathe-Easy membrane and incubated. After 72 h, the Multidrop dispensed 15 uL per well of Cell Titer Glo 2.0 (Thermo Fischer Scientific, Waltham, MA, USA) and plates were incubated in the dark for 10 min. After incubation, luminescence excitation was assessed in the Spectramax reader (Molecular Devices, San Jose, CA, USA) (top read, luminescence excitation at 500 nm) and raw data were processed in Microsoft Excel to subtract background luminescence. […] Screens with a Z-factor value of >0.5 were used for further analysis.
(§2) Overall cell survival (in %) was plotted against the drug concentration range of each drug (in log10[μM]) using GraphPad Prism 8.3.1. Values that exceeded 100% survival (within +20% biological deviation) were normalized to 100% survival. Similarly, values below 0% cell survival (within −20% biological deviation) were normalized to 0% survival. Values exceeding this deviation were excluded. Dose–response curves were obtained using the model “log(inhibitor) vs. variable slope (normalized response)” to fit the dose–response curves and R^2 values were used to indicate how well the model fit the data (Supplementary Materials Figures S4 and S5). […] The maximum plasma concentration (Cmax) and the plasma concentration at steady state (Css) were used as toxicity thresholds. The Cmax was utilized for drugs in which short, high-dosage time courses are required, while the Css was used for maintenance therapy regimes such as anti-hormonal treatment. […] The IC50 values were calculated based on the Chou–Talalay method using Compusyn software [55]. For anti-hormonal treatment, mostly provided as maintenance therapy, we used IC10 values in addition to the IC50.
(§3) In addition to the 11 monotherapies, 12 drug combinations were tested (Table 3) simultaneously with the individual drug treatments in the same 384-well plate. […] Synergy was evaluated using the mass action law, a systematic analysis assessing dose–response dynamics in a cost-effective manner [56, 57]. The combination index (CI) was used to indicate antagonistic (CI > 1) additive (CI = 1) and synergistic (CI < 1) effects [55].
The test system of data set [2] is GCPA113 T1.III patient-derived AGCT cell line. In words: Cell viability drug screen (Cell Titer Glo 2.0, 72 h), mono- and combination therapy, GCPA113T1.III. Particulars: for IC50: read-out: IC50 in monotherapy. A general note: ATP-based viability assays read luminescence as a measure of living cells.
Description: (§4) Cell lines were seeded at a density of 500 cells/well in 40 uL in 384-well plates (Corning, NY, USA) with the Multidrop™ cell dispenser (Thermo Fischer Scientific, Waltham, MA, USA) and sealed with Breathe-Easy® membrane (Sigma-Aldrich, St. Louis, MO, USA) to prevent evaporation. […] For each cell line, three biological repeats and two technical repeats each were performed in order to ensure the validity of the drug screens. […] Subsequently, 11 drugs and 12 drug combinations were dispensed and all wells (excluding blanks and non-DMSO control wells) were normalized to 1% DMSO using the HP Tecan D300e Digital Dispenser (Hewlett-Packard, Palo Alto, CA, USA). […] Next, the plates were covered with the Breathe-Easy membrane and incubated. After 72 h, the Multidrop dispensed 15 uL per well of Cell Titer Glo 2.0 (Thermo Fischer Scientific, Waltham, MA, USA) and plates were incubated in the dark for 10 min. After incubation, luminescence excitation was assessed in the Spectramax reader (Molecular Devices, San Jose, CA, USA) (top read, luminescence excitation at 500 nm) and raw data were processed in Microsoft Excel to subtract background luminescence. The Z-factor, a mathematical method used to quantify the quality of a drug screen based on the calculation of the separation band between the values of the positive and negative controls, was utilized to assess the quality of drug screens [54]. Screens with a Z-factor value of >0.5 were used for further analysis.
(§5) Overall cell survival (in %) was plotted against the drug concentration range of each drug (in log10[μM]) using GraphPad Prism 8.3.1. Values that exceeded 100% survival (within +20% biological deviation) were normalized to 100% survival. Similarly, values below 0% cell survival (within −20% biological deviation) were normalized to 0% survival. Values exceeding this deviation were excluded. Dose–response curves were obtained using the model “log(inhibitor) vs. variable slope (normalized response)” to fit the dose–response curves and R^2 values were used to indicate how well the model fit the data (Supplementary Materials Figures S4 and S5). […] The IC50 values were calculated based on the Chou–Talalay method using Compusyn software [55]. For anti-hormonal treatment, mostly provided as maintenance therapy, we used IC10 values in addition to the IC50.
as §3
Data set [3] concerns GCPA108 T3.IV patient-derived AGCT cell line. Put plainly: Cell viability drug screen (Cell Titer Glo 2.0, 72 h), mono- and combination therapy, GCPA108T3.IV. The settings on record: for IC50: read-out: IC50 in monotherapy.
Description: (§6) Cell lines were seeded at a density of 500 cells/well in 40 uL in 384-well plates (Corning, NY, USA) with the Multidrop™ cell dispenser (Thermo Fischer Scientific, Waltham, MA, USA) and sealed with Breathe-Easy® membrane (Sigma-Aldrich, St. Louis, MO, USA) to prevent evaporation. The SVOG-3e line was seeded at 1000 cells/well due to contact-dependent growth requirements. For each cell line, three biological repeats and two technical repeats each were performed in order to ensure the validity of the drug screens. […] Subsequently, 11 drugs and 12 drug combinations were dispensed and all wells (excluding blanks and non-DMSO control wells) were normalized to 1% DMSO using the HP Tecan D300e Digital Dispenser (Hewlett-Packard, Palo Alto, CA, USA). All drugs were applied in linear concentration ranges (Table 2), including 16 data points to enable combination drug testing at constant ratios (Table 3). Next, the plates were covered with the Breathe-Easy membrane and incubated. After 72 h, the Multidrop dispensed 15 uL per well of Cell Titer Glo 2.0 (Thermo Fischer Scientific, Waltham, MA, USA) and plates were incubated in the dark for 10 min. After incubation, luminescence excitation was assessed in the Spectramax reader (Molecular Devices, San Jose, CA, USA) (top read, luminescence excitation at 500 nm) and raw data were processed in Microsoft Excel to subtract background luminescence. The Z-factor, a mathematical method used to quantify the quality of a drug screen based on the calculation of the separation band between the values of the positive and negative controls, was utilized to assess the quality of drug screens [54]. Screens with a Z-factor value of >0.5 were used for further analysis.
as §2, §3
Data set [4] has as its system GCPA113 T1.II patient-derived AGCT cell line. In words: Cell viability drug screen (Cell Titer Glo 2.0, 72 h), mono- and combination therapy, GCPA113T1.II. The settings on record: for IC50: read-out: IC50 in monotherapy.
Description: as §4, §5, §3
The test system of data set [5] is GCPA096 T1.II patient-derived AGCT cell line. In words: Cell viability drug screen (Cell Titer Glo 2.0, 72 h), mono- and combination therapy, GCPA096T1.II. Particulars: for IC50: read-out: IC50 in monotherapy, 72 h.
Description: as §1, §2, §3
Data set [6] has as its system GCPA096 T1.XV patient-derived AGCT cell line. Put plainly: Cell viability drug screen (Cell Titer Glo 2.0, 72 h), mono- and combination therapy, GCPA096T1.XV. The settings on record: for IC50: read-out: IC50 in monotherapy, 72 h.
Description: as §6, §2, §3
Data set [7] relates to GCPA096 T1.I patient-derived AGCT cell line. In words: Cell viability drug screen (Cell Titer Glo 2.0, 72 h), mono- and combination therapy, GCPA096T1.I. Particulars: for IC50: read-out: IC50 in monotherapy.
Description: as §4, §5, §3
Data set [8] deals with GCPA007 T2.I patient-derived AGCT cell line. In words: Cell viability drug screen (Cell Titer Glo 2.0, 72 h), mono- and combination therapy, GCPA007T2.I. The settings on record: for IC50: read-out: IC50 in monotherapy.
Description: as §1, §2, §3
For data set [9], the system named is GCPA028 T1.II patient-derived AGCT cell line. In words: Cell viability drug screen (Cell Titer Glo 2.0, 72 h), mono- and combination therapy, GCPA028. The settings on record: for IC50: read-out: IC50 in monotherapy.
Description: as §1, §2, §3
Data set [10] relates to GCPA007 T2.IV patient-derived AGCT cell line. In words: Cell viability drug screen (Cell Titer Glo 2.0, 72 h), mono- and combination therapy, GCPA007T2.IV. Particulars: for IC50: read-out: IC50 in monotherapy.
Description: as §4, §5, §3
Data set [11] relates to GCPA096 T1.XVI patient-derived AGCT cell line. Put plainly: Cell viability drug screen (Cell Titer Glo 2.0, 72 h), mono- and combination therapy, GCPA096T1.XVI. The settings on record: for IC50: read-out: IC50 in monotherapy.
Description: as §1, §2, §3
For data set [12], the system named is GCPA113 T1.I patient-derived AGCT cell line. In words: Cell viability drug screen (Cell Titer Glo 2.0, 72 h), mono- and combination therapy, GCPA113T1.I. Particulars: for IC50: read-out: IC50 in monotherapy.
Description: as §4, §5, §3
Data set [13] deals with KGN cells (AGCT cell line). In words: Cell viability drug screen (Cell Titer Glo 2.0, 72 h), mono- and combination therapy, KGN.
Description: KGN was cultured in conditions identical to AGCT-patient-derived cell lines.
as §1, §5
For data set [14] the following is noted: cited from earlier work; for Cmax: read-out: Cmax/Css plasma.
Another data set concerns AGCT cell lines. In words: Cell viability drug screen (72 h), summary over AGCT cell lines (12 patient-derived, with or without KGN). It counts as cell-based, human.
Setting [15] is: human plasma maximum/steady state concentration, ref phase I/II clinical trials.
The mark [16] stands for this setting: Homo sapiens, 72 h, read-out: IC50 in monotherapy.

Description for AGCT cell lines: as §6, §2, §3

Take `Nc1nc2c(ncn2[C@H]2C[C@H](O)[C@@H](CO)O2)c(=S)[nH]1` [6thio-2dG, 6-THIO-2dG]: the “DRI (Fa=0,5)” value in data set [1] (GCPA096T1V, drug within Carbo+Pacli+6thio2dG) amounted to 9.08; in [2] (GCPA113T1III, drug within Carbo+Pacli+6thio2dG), 4.5; in data set [3] (GCPA108T3IV, in Carbo+Pacli+6thio2dG), 6.093; in data set [4] (GCPA113T1II, drug within Carbo+Pacli+6thio2dG), 3.71; in data set [5] (GCPA096T1II, drug within Carbo+Pacli+6thio2dG), 12.35; in data set [6] (GCPA096T1XV, drug within Carbo+Pacli+6thio2dG), 13.49. In addition, the “DRI (Fa=0,5)” value in [7] (GCPA096T1I, in combination Carbo+Pacli+6thio2dG) is listed as 10.9; in [8] (in Carbo+Pacli+6thio2dG (10:1:1), GCPA007T2I), 2.27; in data set [9] (GCPA028, in combination Carbo+Pacli+6thio2dG), 0.16; in data set [10] (GCPA007T2IV, in combination Carbo+Pacli+6thio2dG), 0.95; in data set [11] (GCPA096T1XVI, in Carbo+Pacli+6thio2dG), 1.78; in data set [12] (GCPA113T1I, in Carbo+Pacli+6thio2dG), 3.54. Also, in data set [13] (drug within Carbo+Pacli+6thio2dG), the “DRI (Fa=0,5)” value was determined as 4.961. The IC50 is > 50 µM in [1] (GCPA096T1V, single drug, unit not given (compared with Cmax/Css in uM)); > 50 µM in [2] (GCPA113T1III, monotherapy); > 50 µM in [3] (GCPA108T3IV, monotherapy); > 50 µM in [4] (GCPA113T1II, monotherapy); > 50 µM in [5] (GCPA096T1II, single drug, unit not given (compared with Cmax/Css in uM)); > 50 µM in [6] (GCPA096T1XV, single drug, unit not given (compared with Cmax/Css in uM)). Moreover, the IC50 is > 50 µM in data set [7] (GCPA096T1I, monotherapy); > 50 µM in data set [8] (GCPA007T2I, cell viability 72 h after drug application); > 50 µM in data set [9] (GCPA028, monotherapy); > 50 µM in data set [10] (GCPA007T2IV, monotherapy); 43.8 µM in data set [11] (GCPA096T1XVI, monotherapy); > 50 µM in [12] (GCPA113T1I, monotherapy). The IC50 in [13] (read-out: IC50 in monotherapy, monotherapy) was > 50 µM.

As to `Cc1nc(Nc2ncc(C(=O)Nc3c(C)cccc3Cl)s2)cc(N2CCN(CCO)CC2)n1` [Dasatinib], the 50% inhibitory concentration (IC50) in data set [1] (Homo sapiens) was > 20 µM; in [2] (Homo sapiens, 72 h) it was 18.1 µM; in [3] (Homo sapiens, 72 h), 4.65 µM; in data set [4] (Homo sapiens, 72 h) it was > 20 µM; in data set [5] (Homo sapiens), > 20 µM; in data set [6] (Homo sapiens), > 20 µM. The IC50 was 14.2 µM in data set [7] (Homo sapiens, 72 h); > 20 µM in [8] (Homo sapiens, 72 h); > 20 µM in data set [9] (Homo sapiens, 72 h); > 20 µM in data set [10] (Homo sapiens, 72 h); > 20 µM in [11] (Homo sapiens, 72 h); > 20 µM in data set [12] (Homo sapiens, 72 h). In data set [13] (setting [16]), the IC50 was determined as 4.77 µM. In addition, the “Cmax/Css plasma (Log 10)” value in [14] (human maximum or steady state plasma concentration, log10 of the uM value) is given as -0.9208 Log 10; in [14] (human plasma Cmax/Css, log10 of uM value, from phase I/II clinical trials), -0.9208 Log 10; in [14] (setting [15]), -0.9208 Log 10; in [14] (human plasma, maximum or steady state concentration, log10 of uM value), -0.9208; in data set [14] (human plasma, log10 of uM, phase I/II trials), -0.9208. The Cmax in [14] (human maximum or steady state plasma concentration) is 120 nM; in data set [14] (human plasma Cmax/Css, from phase I/II clinical trials) it was 120 nM; in [14] (setting [15]), 120 nM; in data set [14] (human plasma, maximum or steady state concentration), 120 nM; in data set [14] (human plasma, phase I/II trials), 120 nM.

For `C[C@]12CC[C@@H]3c4ccc(O)cc4C[C@@H](CCCCCCCCC[S+]([O-])CCCC(F)(F)C(F)(F)F)[C@H]3[C@@H]1CC[C@@H]2O` (stereo partly drawn) [Fulvestrant], the IC50 in data set [1] (Homo sapiens) was > 100 µM; in data set [2] (Homo sapiens, 72 h), > 100 µM; in data set [5] (Homo sapiens), > 100 µM; in data set [6] (Homo sapiens) it was > 100 µM; in data set [7] (Homo sapiens, 72 h), > 100 µM; in [8] (Homo sapiens, 72 h), > 100 µM. Further, the IC50 in data set [9] (Homo sapiens, 72 h) is 33.3 µM; in data set [10] (Homo sapiens, 72 h), > 100 µM; in data set [11] (Homo sapiens, 72 h) it was > 100 µM; in data set [12] (Homo sapiens, 72 h) it was > 100 µM; in data set [13] (setting [16]), > 100 µM. Further, the IC50 in monotherapy entry in data set [4] (GCPA113T1II, monotherapy) is “Infinit”.

With `N#Cc1ccc(C(c2ccc(C#N)cc2)n2cncn2)cc1` [Letrozole], the IC50 in data set [1] (Homo sapiens) was > 50 µM; in data set [2] (Homo sapiens, 72 h), > 50 µM; in data set [4] (Homo sapiens, 72 h), > 50 µM; in [5] (Homo sapiens) it was > 50 µM; in data set [6] (Homo sapiens) it was > 50 µM; in [7] (Homo sapiens, 72 h), > 50 µM. Besides, the IC50 in [8] (Homo sapiens, 72 h) is > 50 µM; in data set [9] (Homo sapiens, 72 h), > 50 µM; in [10] (Homo sapiens, 72 h), > 50 µM; in [11] (Homo sapiens, 72 h), > 50 µM; in data set [12] (Homo sapiens, 72 h), > 50 µM; in data set [13] (setting [16]), 35.4 µM.

Consider `CC(=O)O[C@H]1C(=O)[C@@]2(C)[C@H]([C@H](OC(=O)c3ccccc3)[C@]3(O)C[C@H](OC(=O)[C@H](O)[C@@H](NC(=O)c4ccccc4)c4ccccc4)C(C)=C1C3(C)C)[C@]1(OC(C)=O)CO[C@@H]1C[C@@H]2O` [Paclitaxel], for which the IC50 in data set [1] (Homo sapiens) is > 50 µM; in [2] (Homo sapiens, 72 h) it was > 50 µM; in data set [2] (Homo sapiens), > 50 µM; in data set [3] (Homo sapiens, 72 h), > 50 µM; in [3] (Homo sapiens) it was > 50 µM; in data set [4] (Homo sapiens, 72 h), 48.3 µM. For the same compound, the IC50 in data set [4] (Homo sapiens) was 48.3 µM; in the data set with AGCT cell lines (Homo sapiens, median over AGCT cell lines, read-out: median IC50 in monotherapy) it was 93.3 µM; in data set [5] (Homo sapiens), > 50 µM; in [6] (Homo sapiens), > 50 µM; in [7] (Homo sapiens, 72 h) it was > 50 µM; in data set [7] (Homo sapiens), > 50 µM. Further, the IC50 is > 50 µM in data set [8] (Homo sapiens, 72 h); > 50 µM in [10] (Homo sapiens, 72 h); > 50 µM in data set [10] (Homo sapiens); > 50 µM in data set [11] (Homo sapiens, 72 h); > 50 µM in data set [11] (Homo sapiens); > 50 µM in [12] (Homo sapiens, 72 h). Besides, the IC50 was > 50 µM in [12] (Homo sapiens); > 50 µM in data set [13] (setting [16]); > 50 µM in data set [13] (Homo sapiens, read-out: IC50 in monotherapy).

Consider `CC/C(=C(\c1ccccc1)c1ccc(OCCN(C)C)cc1)c1ccccc1` [Tamoxifen], for which the “range IC10 (concentration needed to obtain 10% cell death)” value in the data set with AGCT cell lines (range over AGCT cell lines, monotherapy) lay within 6.04 to 15.03 µM.

Regarding `CC(=O)[C@@]1(O)CC[C@H]2[C@@H]3CCC4=CC(=O)CCC4=C3[C@@H](c3ccc(N(C)C)cc3)C[C@@]21C` [Ulipristal], the IC50 in [1] (Homo sapiens) was > 50 µM; in [2] (Homo sapiens, 72 h), > 50 µM; in data set [3] (Homo sapiens, 72 h), > 50 µM; in data set [4] (Homo sapiens, 72 h), > 50 µM; in data set [5] (Homo sapiens), > 50 µM; in data set [6] (Homo sapiens), > 50 µM. Moreover, the IC50 in [7] (Homo sapiens, 72 h) is > 50 µM; in [8] (Homo sapiens, 72 h) it was > 50 µM; in [9] (Homo sapiens, 72 h), 49.9 µM; in data set [10] (Homo sapiens, 72 h) it was > 50 µM; in data set [11] (Homo sapiens, 72 h), > 50 µM; in data set [12] (Homo sapiens, 72 h), > 50 µM. Also, the IC50 in [13] (setting [16]) worked out at 43.7 µM.
